Reference: BindingDB's records for patent US12065430 (Taiho Pharmaceutical, 2024)

Molecular target: T1, Son of sevenless homolog 1 [564-1049]/GTPase KRas [G12C] (UniProt P01116+Q07889, G12C)
T1 construct: 564-1049
Experiment: Evaluation of Inhibitory Activity of Compounds on KRAS G12C Nucleotide (GDP-GTP) Exchange Reaction
Description: The inhibitory activity of compounds on exchange reaction of GDP into GppNHp in Bodipy (trademark) FL-bound KRAS G12C was examined by fluorescence measurement using human recombinant KRAS G12C and SOS1 proteins.For the preparation of KRAS G12C to which Bodipy FL GDP was bound, first, […] KRAS G12C (amino acid region: 1-169) and 1 mM Bodipy FL GDP (Invitrogen, G22360) were incubated for 1 hour in a buffer (20 mM Tris-HCl (pH 7.5), 50 mM NaCl, 1 mM DTT) in ice in the presence of 2.5 mM EDTA. Thereafter, MgCl2 with a final concentration of 10 mM was added, and the mixture was incubated at room temperature for 30 minutes. The protein was allowed to pass through a NAP-5 column to remove free nucleotides and was used for compound evaluation.For the measurement of the inhibitory activity of compounds on nucleotide exchange reaction, first, the compound of the present invention was diluted stepwise with dimethyl sulfoxide (DMSO). Subsequently, a solution of the gradually diluted compound of the present invention in DMSO (the final concentration of DMSO: 5%) and KRAS G12C (25 nM) bound to Bodipy FL GDP were added to a reaction buffer (20 mM Tris-HCl (pH 7.5), 100 mM NaCl, 1 mM MgCl2, 2 mM DTT, 0.1% Tween20), followed by preincubation at 25° C. for 4 hours. Thereafter, Son of Sevenless Homolog 1 (SOS1, amino acid region: 564-1049) and GppNHp (GMPPNP, Jena Bioscience GmbH, NU-401-50) were added such that their final concentration was 100 nM and 1 μM respectively, followed by reaction for 30 minutes. The change in fluorescence intensity of Bodipy FL (excitation wavelength: 485 nm, fluorescence wavelength: 520 nm) immediately after the start of reaction and after 30 minutes from the start of reaction was standardized. The signal value for only DMSO was determined to be 0% inhibition, and the signal value for no addition of GppNHp was determined to be 100% inhibition. The compound concentration at which 50% inhibition is achieved was determined to be IC50 (nM), and was calculated.

T1 sequence (P01116 whole entry G12C): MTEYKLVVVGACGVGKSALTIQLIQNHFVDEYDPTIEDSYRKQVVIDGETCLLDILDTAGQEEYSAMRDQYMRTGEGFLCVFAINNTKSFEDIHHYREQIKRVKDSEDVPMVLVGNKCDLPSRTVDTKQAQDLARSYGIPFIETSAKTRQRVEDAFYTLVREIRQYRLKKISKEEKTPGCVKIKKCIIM
T1 sequence (Q07889 564-1049): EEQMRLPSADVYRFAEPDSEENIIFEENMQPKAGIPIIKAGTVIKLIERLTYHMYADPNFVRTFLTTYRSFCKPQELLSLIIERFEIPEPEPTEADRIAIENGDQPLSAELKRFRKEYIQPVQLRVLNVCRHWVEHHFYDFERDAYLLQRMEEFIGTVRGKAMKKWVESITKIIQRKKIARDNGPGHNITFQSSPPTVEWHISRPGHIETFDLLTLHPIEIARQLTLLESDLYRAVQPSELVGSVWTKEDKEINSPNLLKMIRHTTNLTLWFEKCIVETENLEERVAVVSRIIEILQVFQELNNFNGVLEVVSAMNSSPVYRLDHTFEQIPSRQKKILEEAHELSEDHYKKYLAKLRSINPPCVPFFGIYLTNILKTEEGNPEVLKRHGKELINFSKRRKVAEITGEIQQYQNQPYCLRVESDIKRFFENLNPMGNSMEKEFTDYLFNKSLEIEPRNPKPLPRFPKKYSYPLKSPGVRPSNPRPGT

SMILES	IC50 [nM]
C=CC(=O)N1CC(NC(=O)c2c(Cl)c(CNc3n[nH]c4cc(Cl)c(C(C)(C)C)cc34)nn2C)C1 [US12065430, Example 6]	791
C=CC(=O)N1CC(NC(=O)c2cnc(CNc3n[nH]c4cc(Cl)c(C(C)(C)C)cc34)s2)C1 [US12065430, Example 8]	783
C=CC(=O)N1CC(NC(=O)c2cc(CNc3n[nH]c4cc(Cl)c(C(C)(C)C)cc34)nn2C)C1 [US12065430, Example 9]	3140
C=CC(=O)N1CC(NC(=O)c2c(C)nc(CNc3n[nH]c4cc(Cl)c(C(C)(C)C)cc34)n2CC)C1 [US12065430, Example 12]	16
C=CC(=O)N1CC(NC(=O)c2c(C)nc(CNc3n[nH]c4cc(Cl)c(C(C)(C)C)cc34)n2Cc2ccccc2)C1 [US12065430, Example 15]	84
C=CC(=O)N1CC(NC(=O)c2c(C)nc(CNc3n[nH]c4cc(Cl)c(C(C)(C)C)cc34)n2C2CCCC2)C1 [US12065430, Example 17]	17
C=CC(=O)N1CC(NC(=O)c2c(C)nc(CNc3n[nH]c4cc(Cl)c(C(C)(C)C)cc34)n2CCCC)C1 [US12065430, Example 18]	12
C=CC(=O)N1CC(NC(=O)c2c(C)nc(CNc3n[nH]c4cc(Cl)c(C(C)(C)C)cc34)n2CCC)C1 [US12065430, Example 19]	9
C=CC(=O)N1CC(NC(=O)c2c(C)nc(CNc3n[nH]c4cc(Cl)c(C(C)(C)C)cc34)n2C(C)CC)C1 (centres undefined) [US12065430, Example 20]	31
C=CC(=O)N1CC(NC(=O)c2c(C)nc(CNc3n[nH]c4cc(Cl)c(C(C)(C)C)cc34)n2C2CC2)C1 [US12065430, Example 23]	7
C=CC(=O)N1CC(NC(=O)c2c(C)nc(CNc3n[nH]c4cc(Cl)c(C(C)(C)C)cc34)n2C(C)(C)C)C1 [US12065430, Example 24]	35

Continued by falling IC50, values first:

IC50 [nM]	SMILES
4260	C=CC(=O)N1CC(NC(=O)c2csc(CNc3n[nH]c4cc(Cl)c(C(C)(C)C)cc34)n2)C1 [US12065430, Example 7]
1560	C=CC(=O)N1CC(NC(=O)c2cnc(C(C)Nc3n[nH]c4cc(Cl)c(C(C)(C)C)cc34)n2C)C1 (centres undefined) [US12065430, Example 4]
1060	C=CC(=O)N1CC(NC(=O)c2oc(CNc3n[nH]c4cc(Cl)c(C(C)(C)C)cc34)nc2C)C1 [US12065430, Example 11]
365	C=CC(=O)N1CC(NC(=O)c2sc(CNc3n[nH]c4cc(Cl)c(C(C)(C)C)cc34)nc2C)C1 [US12065430, Example 2]
163	C=CC(=O)N1CC(NC(=O)c2c(C(F)(F)F)nc(CNc3n[nH]c4cc(Cl)c(C(C)(C)C)cc34)n2C)C1 [US12065430, Example 25]
129	C=CC(=O)N1CC(NC(=O)c2c(C)c(CNc3n[nH]c4cc(Cl)c(C(C)(C)C)cc34)nn2C)C1 [US12065430, Example 10]
69	C=CC(=O)N1CC(NC(=O)c2c(I)nc(CNc3n[nH]c4cc(Cl)c(C(C)(C)C)cc34)n2C)C1 [US12065430, Example 26]
58	C=CC(=O)N1CC(NC(=O)c2c(C)nc(CNc3n[nH]c4cc(Cl)c(C(C)(C)C)cc34)n2C(F)F)C1 [US12065430, Example 21]
55	C=CC(=O)N1CC(NC(=O)c2c(C)nc(CNc3n[nH]c4cc(Cl)c(C(C)(C)C)cc34)n2CC(F)(F)F)C1 [US12065430, Example 22]
25	C=CC(=O)N1CC(NC(=O)c2c(C)nc(CNc3n[nH]c4cc(Cl)c(C(C)(C)C)cc34)n2CCN(C)C)C1 [US12065430, Example 16]
24	C=CC(=O)N1CC(NC(=O)c2c(C)nc(CNc3n[nH]c4cc(Cl)c(C(C)(C)C)cc34)n2CCOC)C1 [US12065430, Example 14]
16	C=CC(=O)N1CC(NC(=O)c2cnc(CNc3n[nH]c4cc(Cl)c(C(C)(C)C)cc34)n2C)C1 [US12065430, Example 1]
15	C=CC(=O)N1CC(NC(=O)c2c(C)nc(CNc3n[nH]c4cc(Cl)c(C(C)(C)C)cc34)n2C(C)C)C1 [US12065430, Example 13]
